We go through three compounds from patent publication US20050266060A1, “Transdermal delivery system for treatment of cognitive disorders” (priority 2004, published 2005).

By Kp is commonly meant tissue or fluid exposure divided by exposure in the circulation. As a reminder, the half-life is how long it takes for the measured level to halve. A higher half-life goes with slow decline. A word on the bioavailability: it is the share of a dose that reaches the circulation, judged against a reference dose that is usually intravenous.

SMILES strings stand for the structures.

A short description of data set [1]: chemical stability of phenserine in vehicles. The data set is classed as physicochemical. As for the experimental part: The time-course profiles for phenserine penetration across human epidermis from the formulations of the invention are conducted. […] Therefore, breakdown and degradation products, for example, by hydrolysis and subsequent oxidation, are assayed in each vehicle. The vehicles of the invention, including propionic acid and/or oleic acid, are assayed for the chemical stability of a phenserine compound.

The nature of data set [2]: in vitro penetration across human epidermis in glass diffusion cells. The data set is classed as in vitro ADME. Here is the method: Preparation of skin membranes: Human skin is obtained post mortem and may be stored at −20° C. until needed. When required the tissue is allowed to thaw at room temperature and the subcutaneous fat removed. Epidermal sheets are separated from full-thickness skin by immersing in water at 60° C. for 45 seconds and gently peeling away the epidermis. Alternatively, skin may be obtained from another source, such as a mouse or rat.
Absorption studies are performed in vitro using glass diffusion cells, having epidermal membranes mounted in Franz type diffusion cells. For example, Franz type diffusion cells having a cross-sectional area of 2.54 cm^2. The cells may be housed in a water bath to maintain a desired temperature. The upper surface of the membrane is exposed to donor solution and the under surface of the membrane is bathed by continuously stirred receptor fluid. Receptor fluid may be a phosphate buffered saline solution, or any physiological solution.
Membrane integrity may be assayed using methods well known in the art prior to conducting a diffusion assay. […]
Results from absorption experiments are typically plotted as cumulative amount absorbed against time. The steady state penetration rate, or flux, J (μg/cm^2/hr), is typically calculated by linear regression analysis from the linear regions of an absorption plot. […]

Another data set deals with brain extracellular ACh. The data set can be described thus: striatal in vivo microdialysis in conscious, freely-moving rats.
Data set [3] is described as follows: clinical studies of oral phenserine compound. Format: in vivo, human. As to conditions: oral dose of about 10 and/or 15 mg bid. As for the experimental part: Clinical studies indicate that an oral dose of a phenserine compound of about 10 and/or 15 mg bid may produce a beneficial treatment for cognitive disorders, such as AD. […] Therefore, the dosage of a phenserine compound may be reduced when administered transdermally.

Data set [4] in a line: brain and plasma drug levels in rats after phenserine i.v. dosing.
Description: (§1) To determine the time-dependent effects of phenserine on cholinergic function, AChE activity, brain and plasma drug levels and brain extracellular ACh concentrations were measured in rats before and after phenserine administration.
Data set [5] concerns beta amyloid precursor protein. Description: production of beta amyloid precursor protein.
A further data set concerns the target T1, AChE (Rattus norvegicus, UniProt P37136).
T1 sequence (P37136 32-614): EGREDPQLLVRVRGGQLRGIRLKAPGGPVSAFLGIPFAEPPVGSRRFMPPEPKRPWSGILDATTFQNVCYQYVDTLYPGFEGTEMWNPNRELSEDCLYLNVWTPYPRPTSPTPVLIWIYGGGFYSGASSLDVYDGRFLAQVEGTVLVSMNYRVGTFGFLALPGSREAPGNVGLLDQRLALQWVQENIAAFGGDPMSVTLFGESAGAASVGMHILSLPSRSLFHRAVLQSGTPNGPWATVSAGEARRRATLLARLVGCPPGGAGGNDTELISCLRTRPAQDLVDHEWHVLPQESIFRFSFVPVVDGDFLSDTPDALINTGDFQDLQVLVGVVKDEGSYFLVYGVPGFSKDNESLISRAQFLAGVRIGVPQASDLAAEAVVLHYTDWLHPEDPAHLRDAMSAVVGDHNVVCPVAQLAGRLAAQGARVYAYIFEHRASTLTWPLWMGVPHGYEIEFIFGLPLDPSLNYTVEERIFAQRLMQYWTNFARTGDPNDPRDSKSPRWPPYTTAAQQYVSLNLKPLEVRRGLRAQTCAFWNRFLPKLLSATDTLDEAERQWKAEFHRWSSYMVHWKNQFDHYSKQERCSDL
The data set can be described thus: time-dependent AChE inhibition in rats after phenserine administration.

A further data set deals with cholinesterase. The data set can be described thus: inhibition of cholinesterase activity. The data set is classed as biochemical. The text has this: The phenserine compounds of the invention may be synthesized using processes known in the art. For example, U.S. Pat. Nos. 6,495,700, 5,409,948, 5,171,750, 5,378,723, and 5,998,460, and WO 03/082270 A1, all of which are hereby incorporated by reference in their entirety, describe the preparation of the phenserine compounds of the invention and enzyme inhibition assays that may be used to test compounds of the invention.

Data set [6] is described as follows: solubility of phenserine or its salt. Format: physicochemical. As to conditions: propionic acid as co-solvent with isopropyl myristate and/or oleic acid. As for the experimental part:
To assay solubility, between 10-20 mg of phenserine is weighed into a 1 ml volumetric flask. An initial 1 ml volume of a chosen vehicle is added to the flask and the mixture agitated, for example, ultrasonically for at least 30 minutes.

Data set [7] can be described thus: skin irritancy and skin penetration of mixture with oleic acid. As to conditions: 50:50 mixture with oleic acid. An excerpt:
Ethyl oleate gives a better performance still and is optimal in combination with propionic acid.

Description for AChE: as §1
Description for brain extracellular ACh: as §1

With `CN1CC[C@@]2(C)c3cc(OC(=O)Nc4ccccc4)ccc3N(C)C12` (single isomer, unassigned) [phenserine], the “effect of co-solvent on stability” value in data set [1] (propionic acid as co-solvent with isopropyl myristate and/or oleic acid) is “increase”. The “chemical stability in vehicle” value in [1] (vehicles of the invention, such as propionic acid and/or oleic acid) is on record as “chemically stable”. The transdermal flux rate entry in data set [2] (25% in propionic acid/isopropyl myristate) and in data set [2] (25% in propionic acid/oleic acid) was “sufficiently high transdermal flux rates” throughout. Moreover, the “rise in brain ACh levels” value in the data set with brain extracellular ACh was over 3 fold. Besides, the “signs of cholinergic over stimulation” value in data set [3] is on record as “does not cause overt signs of cholinergic over stimulation”. Further, the Kp in data set [4] (rat, brain / plasma, iv) was 10. The half-life in data set [4] (rat, brain, iv) was 8.5 min; in data set [4] (rat, plasma, iv), 12.6 min. In addition, the “time to peak drug level” value in [4] (rats, i.v. dosing) is listed as at most 5 min. For the same compound, the “production of beta amyloid precursor protein” value in [5] was “reduction in β-APP production”. The compound further returned a bioavailability on AChE (rat, plasma, po) of 100%. Moreover, the “half-life of AChE inhibition” value at AChE (rats, i.v. dosing) is over 495 min. In addition, the “inhibition of AChE” value on AChE (rats, i.v. dosing) is over 70%. Moreover, the “inhibition of cholinesterase activity” value in the data set with cholinesterase was “long-acting inhibitor of cholinesterase”. In data set [6], the “effect of co-solvent on solubility” value is “increase”.

In the case of `CN1CC[C@]2(C)c3cc(OC(=O)Nc4ccccc4)ccc3N(C)C12` (stereo partly drawn) [POSIPHEN, (3aR)-1,3a,8-trimethyl-1,2,3,3a,8,8a-hexahydropyrrolo[2,3-b]indol-5-yl phenylcarbamate], in data set [5], the “production of beta amyloid precursor protein” value is given as “reduces the production of beta amyloid precursor protein”. For the same compound, in the data set with cholinesterase, the “inhibition of cholinesterase activity” value is given as “does not inhibit cholinesterase activity”.

As to `CNC(=O)Oc1ccc2c(c1)[C@]1(C)CCN(C)[C@@H]1N2C` [physostigmine], in data set [7], the “penetration through the skin” value is “very efficient” and the skin irritancy result is “non-irritant”.
